± gives the expanded uncertainty stated by the source.
Experiment: molar heat capacity at constant pressure
Conditions: 101.33 kPa, Liquid

SMILES	molar heat capacity at constant pressure (284.15 K) [J/K/mol]	molar heat capacity at constant pressure (286.65 K) [J/K/mol]	molar heat capacity at constant pressure (289.15 K) [J/K/mol]	molar heat capacity at constant pressure (291.65 K) [J/K/mol]	molar heat capacity at constant pressure (294.15 K) [J/K/mol]	molar heat capacity at constant pressure (296.65 K) [J/K/mol]	molar heat capacity at constant pressure (299.15 K) [J/K/mol]	molar heat capacity at constant pressure (301.65 K) [J/K/mol]	molar heat capacity at constant pressure (304.15 K) [J/K/mol]	molar heat capacity at constant pressure (306.65 K) [J/K/mol]	molar heat capacity at constant pressure (309.15 K) [J/K/mol]	molar heat capacity at constant pressure (311.65 K) [J/K/mol]	molar heat capacity at constant pressure (314.15 K) [J/K/mol]	molar heat capacity at constant pressure (316.65 K) [J/K/mol]	molar heat capacity at constant pressure (319.15 K) [J/K/mol]	molar heat capacity at constant pressure (321.65 K) [J/K/mol]	molar heat capacity at constant pressure (324.15 K) [J/K/mol]	molar heat capacity at constant pressure (326.65 K) [J/K/mol]	molar heat capacity at constant pressure (329.15 K) [J/K/mol]	molar heat capacity at constant pressure (331.65 K) [J/K/mol]	other results
CCCCCCCCCl [1-chlorooctane]	269.76 ± 1.4	270.79 ± 1.4	271.83 ± 1.4	272.66 ± 1.4	273.66 ± 1.4	274.53 ± 1.4	275.61 ± 1.4	276.52 ± 1.4	277.29 ± 1.4	278.37 ± 1.4	279.28 ± 1.4	280.5 ± 1.4	281.58 ± 1.4	282.47 ± 1.4	283.79 ± 1.4	284.92 ± 1.4	285.45 ± 1.4	286.81 ± 1.4	288.43 ± 1.4	289.95 ± 1.4	molar heat capacity at constant pressure (334.15 K): 290.13 ± 1.4 J/K/mol; molar heat capacity at constant pressure (336.65 K): 291.34 ± 1.5 J/K/mol; molar heat capacity at constant pressure (339.15 K): 291.91 ± 1.5 J/K/mol; molar heat capacity at constant pressure (341.65 K): 293.56 ± 1.5 J/K/mol; molar heat capacity at constant pressure (344.15 K): 294.16 ± 1.5 J/K/mol; molar heat capacity at constant pressure (346.65 K): 294.82 ± 1.5 J/K/mol; molar heat capacity at constant pressure (349.15 K): 295.79 ± 1.5 J/K/mol; molar heat capacity at constant pressure (351.65 K): 297.21 ± 1.5 J/K/mol; molar heat capacity at constant pressure (353.15 K): 298.14 ± 1.5 J/K/mol
CCCCCl [1-chlorobutane]	156.22 ± 0.78	156.75 ± 0.78	157.28 ± 0.79	157.7 ± 0.79	158.27 ± 0.79	158.86 ± 0.79	159.48 ± 0.8	160.05 ± 0.8	160.5 ± 0.8	161.06 ± 0.81	161.59 ± 0.81	162.24 ± 0.81	162.92 ± 0.81	163.42 ± 0.82	164.11 ± 0.82	164.82 ± 0.82	165 ± 0.83	165.97 ± 0.83	166.72 ± 0.83	167.29 ± 0.84	molar heat capacity at constant pressure (334.15 K): 167.78 ± 0.84 J/K/mol; molar heat capacity at constant pressure (336.65 K): 168.53 ± 0.84 J/K/mol; molar heat capacity at constant pressure (339.15 K): 169.12 ± 0.85 J/K/mol; molar heat capacity at constant pressure (341.65 K): 170.01 ± 0.85 J/K/mol; molar heat capacity at constant pressure (344.15 K): 170.43 ± 0.85 J/K/mol; molar heat capacity at constant pressure (346.65 K): 170.49 ± 0.85 J/K/mol; molar heat capacity at constant pressure (349.15 K): 171.5 ± 0.86 J/K/mol; molar heat capacity at constant pressure (351.65 K): 173.02 ± 0.87 J/K/mol; molar heat capacity at constant pressure (353.15 K): 173.09 ± 0.87 J/K/mol
CCCBr [1-bromopropane]	131.2 ± 0.66	131.64 ± 0.66	132.01 ± 0.66	132.46 ± 0.66	132.78 ± 0.66	133.2 ± 0.67	133.64 ± 0.67	134 ± 0.67	134.55 ± 0.67	134.93 ± 0.67	135.35 ± 0.68	135.8 ± 0.68	136.23 ± 0.68	136.68 ± 0.68	137.16 ± 0.69	137.6 ± 0.69	138.11 ± 0.69	138.55 ± 0.69			molar heat capacity at constant pressure (269.15 K): 129.02 ± 0.65 J/K/mol; molar heat capacity at constant pressure (271.65 K): 129.44 ± 0.65 J/K/mol; molar heat capacity at constant pressure (274.15 K): 129.78 ± 0.65 J/K/mol; molar heat capacity at constant pressure (276.65 K): 130.1 ± 0.65 J/K/mol; molar heat capacity at constant pressure (279.15 K): 130.48 ± 0.65 J/K/mol; molar heat capacity at constant pressure (281.65 K): 130.86 ± 0.65 J/K/mol
CCCCl [1-chloropropane]	128.63 ± 0.64	128.99 ± 0.64	129.53 ± 0.65	130.1 ± 0.65	130.47 ± 0.65	130.95 ± 0.65	131.33 ± 0.66	131.88 ± 0.66	132.37 ± 0.66	132.94 ± 0.66	133.4 ± 0.67	133.92 ± 0.67	134.38 ± 0.67								
CCCCCCCl [1-chlorohexane]	212.36 ± 1.1	213.23 ± 1.1	213.91 ± 1.1	214.63 ± 1.1	215.4 ± 1.1	216.12 ± 1.1	216.95 ± 1.1	217.75 ± 1.1	218.44 ± 1.1	219.22 ± 1.1	219.99 ± 1.1	221 ± 1.1	221.78 ± 1.1	222.49 ± 1.1	223.43 ± 1.1	224.31 ± 1.1	224.7 ± 1.1	226.02 ± 1.1	227.13 ± 1.1	228.86 ± 1.1	molar heat capacity at constant pressure (334.15 K): 228.99 ± 1.1 J/K/mol; molar heat capacity at constant pressure (336.65 K): 229.44 ± 1.1 J/K/mol; molar heat capacity at constant pressure (339.15 K): 230.06 ± 1.1 J/K/mol; molar heat capacity at constant pressure (341.65 K): 231.22 ± 1.2 J/K/mol; molar heat capacity at constant pressure (344.15 K): 231.83 ± 1.2 J/K/mol; molar heat capacity at constant pressure (346.65 K): 232.32 ± 1.2 J/K/mol; molar heat capacity at constant pressure (349.15 K): 233.18 ± 1.2 J/K/mol; molar heat capacity at constant pressure (351.65 K): 234.56 ± 1.2 J/K/mol; molar heat capacity at constant pressure (353.15 K): 235.17 ± 1.2 J/K/mol
CCCCCCCCCCBr [1-bromodecane]	332.6 ± 1.7	333.65 ± 1.7	335 ± 1.7	336.08 ± 1.7	336.9 ± 1.7	338.2 ± 1.7	339.29 ± 1.7	340.37 ± 1.7	341.48 ± 1.7	342.74 ± 1.7	343.89 ± 1.7	345.13 ± 1.7	346.34 ± 1.7	347.51 ± 1.7	348.84 ± 1.7	350.1 ± 1.8	351.41 ± 1.8	352.71 ± 1.8	354.02 ± 1.8	355.32 ± 1.8	molar heat capacity at constant pressure (334.15 K): 356.14 ± 1.8 J/K/mol; molar heat capacity at constant pressure (336.65 K): 357.34 ± 1.8 J/K/mol; molar heat capacity at constant pressure (339.15 K): 359.3 ± 1.8 J/K/mol; molar heat capacity at constant pressure (341.65 K): 360.7 ± 1.8 J/K/mol; molar heat capacity at constant pressure (344.15 K): 362.13 ± 1.8 J/K/mol; molar heat capacity at constant pressure (346.65 K): 363.37 ± 1.8 J/K/mol; molar heat capacity at constant pressure (349.15 K): 364.86 ± 1.8 J/K/mol; molar heat capacity at constant pressure (351.65 K): 366.38 ± 1.8 J/K/mol; molar heat capacity at constant pressure (353.15 K): 367.07 ± 1.8 J/K/mol
CCCCBr [1-bromobutane]	159.45 ± 0.8	159.98 ± 0.8	160.53 ± 0.8	161.01 ± 0.81	161.52 ± 0.81	162.08 ± 0.81	162.6 ± 0.81	163.08 ± 0.82	163.72 ± 0.82	164.22 ± 0.82	164.78 ± 0.82	165.34 ± 0.83	165.94 ± 0.83	166.49 ± 0.83	167.09 ± 0.84	167.67 ± 0.84	168.29 ± 0.84	168.83 ± 0.84	169.45 ± 0.85	170.09 ± 0.85	molar heat capacity at constant pressure (334.15 K): 170.63 ± 0.85 J/K/mol; molar heat capacity at constant pressure (336.65 K): 171 ± 0.86 J/K/mol; molar heat capacity at constant pressure (339.15 K): 171.94 ± 0.86 J/K/mol; molar heat capacity at constant pressure (341.65 K): 172.57 ± 0.86 J/K/mol; molar heat capacity at constant pressure (344.15 K): 173.26 ± 0.87 J/K/mol; molar heat capacity at constant pressure (346.65 K): 173.89 ± 0.87 J/K/mol; molar heat capacity at constant pressure (349.15 K): 174.51 ± 0.87 J/K/mol; molar heat capacity at constant pressure (351.65 K): 175.19 ± 0.88 J/K/mol; molar heat capacity at constant pressure (353.15 K): 175.47 ± 0.88 J/K/mol

Source: the NIST ThermoML archive (doi:10.1021/je049652j)
